Measurements as given in patent US6485713B1, “Sunscreen compositions and methods and materials for producing the same” (The C. P. Hall Company, priority 2002, dated 2002).
Several values for one entry are separate records, joined by “and”; a condition that tells them apart may be missing. Equal values may be shown once. Read-outs that look alike come from different tables or passages of the source. Marks after values point to notes of the source that are not given here.

Legend:
[1] = Dielectric constants of sunscreen ingredients at 25° C.; assay type: physicochemical; conditions: for Dielectric Constant at 25° C. (ε), estimated value: marked estimated; for Dielectric Constant at 25° C. (ε): neat ingredient
Source text: A step of determining the polarity of a mixture or an emulsion can be performed in various ways. For example, determining a polarity can include measuring a property that is a function of polarity, such as a dielectric constant. Measurement of a dielectric constant of a liquid can be performed by various sensors, such as immersion probes, flow-through probes, and cup-type probes, attached to various meters, such as those available from the Brookhaven Instruments Corporation of Holtsville, N.Y. (e.g., model BI-870) and the Scientifica Company of Princeton, N.J. (e.g. models 850 and 870). For consistency of comparison, preferably all measurements for a particular filter system are performed at substantially the same sample temperature, e.g., by use of a water bath. Generally, the measured dielectric constant of a substance will increase at lower temperatures and decrease at higher temperatures.
A mixture of solvent system and filter system, in accordance with one preferred embodiment, are combined with well-known cosmetically-acceptable additives, such as moisturizers, emollients, solvents, co-solvents, lubricants, thickeners, emulsifiers and/or other common cosmetic formulation additives for solubility of sunscreen active compounds, emulsification, thickening and to provide other skin enhancement, e.g., moisturizing properties. The compositions can be produced as oily lotions, gels, solid sticks, emulsions, aerosols, and all other forms of cosmetic compositions. The dielectric constants of various sunscreen additive materials are well known, see, Dielectric Constant Reference Guide of ASI Instruments, Inc., pages 1-64, (http://asiinstruments.com/dcl.html), hereby incorporated herein by reference.

[2] = marked literature value, cited from earlier work
[3] = Solvency testing of solvents for octyl triazone; assay type: physicochemical; conditions: solute octyl triazone dissolved in the named solvent
Source text: (§1) Examples of crystalline UV filters include oxybenzone, avobenzone, and octyl triazone (sold under the trade name UVINUL T-150 by BASF Corporation) and methylbenzilidene camphor.

[4] = Solvency testing of solvents for avobenzone; assay type: physicochemical; conditions: solute avobenzone dissolved in the named solvent
Source text: as §1

[5] = Solvency testing of solvents for oxybenzone; assay type: physicochemical; conditions: solute oxybenzone dissolved in the named solvent
Source text: as §1

[6] = Solvency for crystalline UV filters, comparison with traditional solvents; assay type: physicochemical; conditions: compared to traditional solvents used in sunscreen compositions
Source text: as §1

For COc1ccc(C(=O)CC(=O)c2ccc(C(C)(C)C)cc2)cc1 [Avobenzone, 4-(1,1-dimethylethyl)-4′-methoxydibenzoylmethane, reference compound], which “Dielectric Constant at 25° C. (ε), estimated value” [1] is on record?
The value was ~10 (estimated.).

What about the “Dielectric Constant at 25° C. (ε), estimated value” ([1]; listed as avobenzone) of the same compound?
Its value is ~10*.

For COc1ccc(C(=O)c2ccccc2)c(O)c1 [Benzophenone-3, benzophenone-3], which “Dielectric Constant at 25° C. (ε), literature value” ([2]; listed as benzophenone-3) is on record?
The value was 13^†.

What about the “Dielectric Constant at 25° C. (ε), literature value” [2] of the same compound?
The value was 13.

With CCCCCCC(CCCC)COC(=O)CC(O)C(=O)OCC(CCCC)CCCCCC (centres unmarked) [Dibutyloctyl malate, bis(2-butyloctyl)malate] as the compound, how does the “Dielectric Constant at 25° C. (ε)” value [1] read?
Its value is 4.65.

For CCCCC(CC)COC(=O)c1ccc2cc(C(=O)OCC(CC)CCCC)ccc2c1 (centres unmarked) [Diethylhexyl 2,6-naphthalate], which “Dielectric Constant at 25° C. (ε)” value [1] is on record?
The value was 4.34.

For CCCCC(CC)COC(=O)CCCCC(=O)OCC(CC)CCCC (centres unmarked) [Diethylhexyl adipate], which “Solvency for Octyl triazone” value [3] is on record?
Its value is less than 5% wt. %.

And the “Solvency for Avobenzone” value [4]?
The value was 10% wt. %.

What about the “Solvency for Oxybenzone” value [5] of the same compound?
Its value is 20% wt. %.

What about the “Dielectric Constant at 25° C. (ε)” value [1] of the same compound?
Its value is 4.21.

With CC(C)CCOC(=O)CC(O)C(=O)OCCC(C)C (centres unmarked) [Diisoamyl malate] as the compound, how does the “Dielectric Constant at 25° C. (ε)” value [1] read?
The value was 7.42.

Which “Dielectric Constant at 25° C. (ε)” value [1] does the source give for CCCCCCCCOC(=O)CC(O)C(=O)OCCCCCCCC (centres unmarked) [Dioctyl malate] here?
Its value is 4.74 and 5.78.

With CCCCC(CC)COC(=O)C=Cc1ccc(OC)cc1 (centres unmarked) [Ethylhexyl methoxycinnamate, 2-ethylhexyl paramethoxycinnamate, reference compound] as the compound, how does the “Solvency for Octyl triazone” value [3] read?
Its value is 15% wt. %.

And the “Solvency for Avobenzone” value [4]?
The value was 17% wt. %.

And the “Solvency for Oxybenzone” value [5]?
The value was 24% wt. %.

And the “Dielectric Constant at 25° C. (ε)” value [1]?
Its value is 5.98.

For CCCCCCCCCCCCCCCC(=O)OCC(CC)CCCC (centres unmarked) [Ethylhexyl palmitate], which “Dielectric Constant at 25° C. (ε)” value [1] is on record?
The value was 3.06.

Which “Solvency for Octyl triazone” value [3] does the source give for CCCCC(CC)COC(=O)c1ccccc1O (centres unmarked) [Ethylhexyl salicylate, 2-ethylhexyl salicylate, reference compound] here?
Its value is 5% wt. %.

What about the “Solvency for Avobenzone” value [4] of the same compound?
Its value is 16% wt. %.

And the “Solvency for Oxybenzone” value [5]?
Its value is 18% wt. %.

What about the “Dielectric Constant at 25° C. (ε)” value [1] of the same compound?
Its value is 6.20.

And the “Dielectric Constant at 25° C. (ε)” value ([1]; listed as octyl salicylate)?
The value was 6.2.

For CCCCCCCCCCCCCCCCCC(=O)OCC(CC)CCCC (centres unmarked) [Ethylhexyl stearate], which “Dielectric Constant at 25° C. (ε)” value [1] is on record?
Its value is 3.05.

For CCCCCCCCCCCCCCCCCC(C)C [Isoeicosane], which “Dielectric Constant at 25° C. (ε)” value [1] is on record?
The value was 2.04.

Which “Solvency for Octyl triazone” value [3] does the source give for CCCCCCCCCCCCCC(=O)OC(C)C [Isopropyl myristate] here?
The value was less than 5% wt. %.

And the “Solvency for Avobenzone” value [4]?
The value was 15% wt. %.

And the “Solvency for Oxybenzone” value [5]?
Its value is 20% wt. %.

What about the “Dielectric Constant at 25° C. (ε)” value [1] of the same compound?
The value was 3.24.

With CCCCCCCCCCCCCCCC(=O)OC(C)C [Isopropyl palmitate] as the compound, how does the “Dielectric Constant at 25° C. (ε)” value [1] read?
Its value is 3.20.

For CCCCCCCCCC(=O)N(C)C [N,N-dimethyldecanamide], which “Solvency for Octyl triazone” value [3] is on record?
Its value is 37% wt. %.

And the “Solvency for Avobenzone” value [4]?
Its value is 37% wt. %.

What about the “Solvency for Oxybenzone” value [5] of the same compound?
Its value is 38% wt. %.

What about the “Dielectric Constant at 25° C. (ε)” value [1] of the same compound?
Its value is 12.43.

And the “ability to solvate crystalline UV filters (in words)” value [6]?
The value was “far superior”.

With CCCCC(CC)COC(=O)C(C#N)=C(c1ccccc1)c1ccccc1 (centres unmarked) [Octocrylene, 2-ethylhexyl-2-cyano-3,3 diphenylacrylate, reference compound] as the compound, how does the “Solvency for Octyl triazone” value [3] read?
The value was 1% wt. %.

What about the “Solvency for Avobenzone” value [4] of the same compound?
Its value is 27% wt. %.

And the “Solvency for Oxybenzone” value [5]?
The value was 32% wt. %.

And the “Dielectric Constant at 25° C. (ε)” value [1]?
The value was 11.08.

With O [Water] as the compound, how does the “Dielectric Constant at 25° C. (ε)” value [1] read?
The value was 80.

Which “Solvency for Octyl triazone” value [3] does the source give for Diethylhexyl malate here?
The value was 5% wt. % and <5% wt. %.

And the “Solvency for Avobenzone” value [4]?
The value was 12.5% wt. % and 15% wt. %.

And the “Solvency for Oxybenzone” value [5]?
The value was 19% wt. % and 15% wt. %.

And the “Dielectric Constant at 25° C. (ε)” value [1]?
Its value is 4.74 and 5.88.

And the “Dielectric Constant at 25° C. (ε)” value ([1]; listed as diethylhexyl malate)?
Its value is 5.88.

Which “Dielectric Constant at 25° C. (ε), estimated value” [1] does the source give for Isododecyl alcohol dimer with HDI here?
Its value is ~10 (estimated.).

What about the “Dielectric Constant at 25° C. (ε), estimated value” ([1]; listed as isododecyl alcohol dimer w/HDI) of the same compound?
The value was ~10*.

With Octyldodecyl neopentanoate as the compound, how does the “Dielectric Constant at 25° C. (ε)” value [1] read?
The value was 3.04.

For PPG-2 myristyl ether propionate, which “Dielectric Constant at 25° C. (ε)” value [1] is on record?
Its value is 3.88.

For “isododecyl alcohol dimer with isopherone diisocyanate (IPDI) [Isododecyl alcohol dimer with IPDI]”, which “Dielectric Constant at 25° C. (ε), estimated value” [1] is on record?
The value was ~10 (estimated.).

What about the “Dielectric Constant at 25° C. (ε), estimated value” ([1]; listed as isododecyl alcohol dimer w/IPDI) of the same compound?
The value was ~10*.
